Columns and labels:
C57BL/6JxFVB hybrid mice [1] = assay: Tibia composition/function by pQCT; format: in vivo; conditions: for Emax: Mus musculus
C57BL/6JxFVB hybrid mice [2] = assay: Glucose tolerance test; format: in vivo; conditions: males and females; 300 µg/kg vs control; 19 weeks; data not shown
Experimental: One week later, at 20 weeks of age, an insulin tolerance test (ITT) was performed in the same animals as used for the GTT. Mice were not fasted to avoid low glucose baseline levels which, after an insulin injection, could lead to hypoglycemia. At the start of the experiment, a baseline blood sample was taken (0 min). […] The experiment was performed over two morning sessions, with 1.75 h between the first and last tested animal in each session, and animals were treated in a random order. At the age of 22–25 weeks, control and 300 µg/kg bw/d animals were used for a spontaneous locomotor activity test. After an acclimatization period of minimal 6 h, activity of the mice was continuously registered on four parallel platforms for 36 h (males) or 60 h (females), starting at the beginning of the dark phase (6.30 PM) of the first day.
Some measurements included only control and one or two dose groups and could therefore not be analyzed as dose–responses. GTT was therefore evaluated by repeated-measures or nested (to account for litter covariance) two-way ANOVAs (Graphpad Prism 5.0, R) to detect differences at the different time points and between the areas under the curve (AUC). Activity measurement, ucp1 expression, WAT adipocyte size and the proxy for cell number were also tested with a nested ANOVA (R). […]

F0 C57BL/6J mice = assay: Perinatal dietary exposure: general toxicity and reproduction parameters (litter size, sex ratio, survival); format: in vivo
Experimental: PFOA was obtained as sodium perfluoro-n-octanoate (PFOA-Na; CAS No. 335-95-5, purity >99 %) and kindly provided by Wellington Laboratories Inc., Ontario, Canada. PFOA-Na was dissolved in acetone and mixed with the diet (NIH-07, Research Diet Services, Wijk bij Duurstede, The Netherlands). Thereafter, acetone was allowed to evaporate, and this master mixture was serially diluted with a factor 3–3.3 by adding NIH-07, and afterward, the diet was pelleted. In this way, seven diet groups and a control NIH-07 (blank acetone was added) were obtained, aiming at concentrations of 0, 0.017, 0.056, 0.17, 0.56, 1.7, 5.6 and 17 mg/kg PFOA in feed, which corresponded to 0, 3, 10, 30, 100, 300, 1000 and 3000 µg/kg bw based on an average food consumption of 4.5 g per mouse (average body weight of 25 g) per day. PFOA concentrations in test diets were confirmed by isotope dilution liquid chromatography mass spectrometry after extraction with methanol (8402, JT Baker, Deventer the Netherlands) and a cleanup with carbon solid phase extraction (ENVI Carb, 57210-U, Supelco, Zwijndrecht, the Netherlands). Actual PFOA concentrations in the food were 15–30 % lower than the nominal values. The non-purified soy-based NIH-07 was chosen because it was originally designed to optimize gestation, lactation and growth of rodents, and avoiding natural phytoestrogens in the diet may have confounding effects (Ruhlen et al. [2008]). Estrogenic and anti-estrogenic activity for this diet was previously analyzed to be low and absent, respectively (van Esterik et al. [2014]).
Nulliparous female C57BL/6J mice (Charles River, Sulzfeld, Germany) were mated with male FVB mice (GPL, Bilthoven, The Netherlands) to produce hybrid offspring, for which comprehensive background information of phenotype and development is available (Dollé et al. [2011]). Mice were maintained under specific pathogen-free conditions with a target ambient temperature of 21 °C, humidity of 60 % and with a 12/12 h light/dark cycle. F0 males were single-housed in standard Macrolon type II cages and were fed standard laboratory chow (CRM, Tecnilab-BMI, Someren, The Netherlands). To avoid interference from environmental bisphenol A (van Esterik et al. [2014]), F0 females and their pups during lactation were housed in polysulfone cages (Tecnilab-BMI, Someren, The Netherlands), and drinking water was supplied in glass bottles with rubber stoppers. Cages had spruce/fir wood bedding (Lignocel S 8-15; Tecnilab-BMI, Someren, The Netherlands) and aspen wood shavings (Lignocel 9 S) for cage enrichment. Both feed and water were supplied ad libitum.
After an acclimatization period of 1 week, female F0 mice were fed experimental diets explained above starting 2 weeks before mating and continued during mating (1 week), gestation (3 weeks) and lactation (3 weeks). Each dose group had six F0 females, which were mated three by three with two F0 males for each dose group. […] For every dose group, on average 9 mice per sex (range 6–10) were included for follow-up through juvenile and adult stages, selecting pups proportionally from available litters. F1 males were single-housed, and F1 females were housed in pairs from the same litter in standard Macrolon type I cages. Body weight was measured at postnatal day (PND) 4, 7, 14 and 21 and weekly from 5 weeks of age continuing until the end of the study. Food consumption could not be recorded reliably due to high spillage.

C57BL/6JxFVB hybrid mice [3] = assay: Histopathology of liver; format: in vivo; conditions: for Liver nuclear dysmorphology: count of individuals with Grade 0 / Liver nuclear dysmorphology: count of individuals with Grades 1, 2: p = 0.06 vs control
C57BL/6JxFVB hybrid mice [4] = assay: Serum lipids and glucose; conditions: for Emax: Mus musculus
[5] = ref EFSA [2012]; EFSA [2008]; cited from earlier work
[6] = cited from earlier work
rodents = test system: rodents; set-up: method as in EFSA [2008]; conditions: basis of the TDI; ref EFSA [2008]; cited from earlier work
[7] = males, 300 and 3000 µg PFOA/kg body weight/day combined, p = 0.07 vs control

O=C(O)C(F)(F)C(F)(F)C(F)(F)C(F)(F)C(F)(F)C(F)(F)C(F)(F)F [PFOA, Perfluorooctanoic acid]
Tibia ability to resist torsion: BMDL (C57BL/6JxFVB hybrid mice [1]; F1 females, CES 5 %): 917 µg/kg bw/d | Tibia ability to resist torsion: BMDU (C57BL/6JxFVB hybrid mice [1]; F1 females, CES 5 %): 10,316 µg/kg bw/d | Tibia bending strength: BMDL (C57BL/6JxFVB hybrid mice [1]; F1 females, CES 5 %): 888 µg/kg bw/d | Tibia bending strength: BMDU (C57BL/6JxFVB hybrid mice [1]; F1 females, CES 5 %): 3371 µg/kg bw/d | Tibia cortical density: BMDL (C57BL/6JxFVB hybrid mice [1]; F1 females, CES 5 %): 2866 µg/kg bw/d | Tibia cortical density: BMDU (C57BL/6JxFVB hybrid mice [1]; F1 females, CES 5 %): 6949 µg/kg bw/d | Tibia trabecular area: BMDL (C57BL/6JxFVB hybrid mice [1]; F1 females, CES 5 %): 914 µg/kg bw/d | Tibia trabecular area: BMDU (C57BL/6JxFVB hybrid mice [1]; F1 females, CES 5 %): 3037 µg/kg bw/d | Tibia cortical density: BMDL (C57BL/6JxFVB hybrid mice [1]; F1 males, CES 5 %): 2635 µg/kg bw/d | Tibia cortical density: BMDU (C57BL/6JxFVB hybrid mice [1]; F1 males, CES 5 %): 27,520 µg/kg bw/d | Emax (C57BL/6JxFVB hybrid mice [1]; F1 females, read-out: Tibia ability to resist torsion: max effect size): -8.3% | Emax (C57BL/6JxFVB hybrid mice [1]; F1 females, read-out: Tibia bending strength: max effect size): -9.9% | Emax (C57BL/6JxFVB hybrid mice [1]; F1 females, read-out: Tibia cortical density: max effect size): -3.7% | Emax (C57BL/6JxFVB hybrid mice [1]; F1 females, read-out: Tibia trabecular area: max effect size): -10% | Emax (C57BL/6JxFVB hybrid mice [1]; F1 males, read-out: Tibia cortical density: max effect size): -3.4% | Glucose homeostasis: GTT (C57BL/6JxFVB hybrid mice [2]): did not show an effect | Sex ratio or survival of the F1 generation (F0 C57BL/6J mice; 3–3000 µg/kg bw/day): No effects | Litter size: BMD (CED) (F0 C57BL/6J mice; F0 dams exposed via diet 2 weeks before mating until PND21): 445 µg/kg bw/d | Litter size: CEDL (F0 C57BL/6J mice; Fig. 1, unit from legend): 299.1 µg/kg body weight/day | Litter size: CEDU (F0 C57BL/6J mice; Fig. 1, unit from legend): 873 µg/kg body weight/day | General toxicity in dams (survival, body weight, weight gain during gestation) (F0 C57BL/6J mice; dietary exposure 3–3000 µg/kg bw/day): no effect | Liver eosinophilic alteration: count of individuals with Grades 0, 1 (C57BL/6JxFVB hybrid mice [3]; females, 300 and 3000 combined): 11 | Liver eosinophilic alteration: count of individuals with Grades 2, 3 (C57BL/6JxFVB hybrid mice [3]; females, 300 and 3000 combined): 8 | Liver fatty change: count of individuals with Grade 0 (C57BL/6JxFVB hybrid mice [3]; females, 300 and 3000 combined): 17 | Liver fatty change: count of individuals with Grades 1, 2, 3 (C57BL/6JxFVB hybrid mice [3]; females, 300 and 3000 combined): 2 | Liver nuclear dysmorphology: count of individuals with Grade 0 (C57BL/6JxFVB hybrid mice [3]; females, 300 and 3000 combined): 12 | Liver nuclear dysmorphology: count of individuals with Grades 1, 2 (C57BL/6JxFVB hybrid mice [3]; females, 300 and 3000 combined): 7 | Liver eosinophilic alteration: count of individuals with Grade 0 (C57BL/6JxFVB hybrid mice [3]; [7]): 14 | Liver eosinophilic alteration: count of individuals with Grades 1, 2 (C57BL/6JxFVB hybrid mice [3]; [7]): 6 | Liver fatty change: count of individuals with Grade 0 (C57BL/6JxFVB hybrid mice [3]; males, 300 and 3000 combined): 16 | Liver fatty change: count of individuals with Grades 1, 2, 3, 4 (C57BL/6JxFVB hybrid mice [3]; males, 300 and 3000 combined): 4 | Liver nuclear dysmorphology: count of individuals with Grade 0 (C57BL/6JxFVB hybrid mice [3]; males, 300 and 3000 combined): 13 | Liver nuclear dysmorphology: count of individuals with Grades 1, 2 (C57BL/6JxFVB hybrid mice [3]; males, 300 and 3000 combined): 7 | Serum triglycerides: BMDU/BMDL (C57BL/6JxFVB hybrid mice [4]; F1 females): 100 | Serum cholesterol: BMDL (C57BL/6JxFVB hybrid mice [4]; F1 females, CES 5 %): 402 µg/kg bw/d | Serum cholesterol: BMDU (C57BL/6JxFVB hybrid mice [4]; F1 females, CES 5 %): 1284 µg/kg bw/d | Serum triglycerides: BMDL (C57BL/6JxFVB hybrid mice [4]; F1 females, CES 5 %): 6.2 µg/kg bw/d | Serum triglycerides: BMDU (C57BL/6JxFVB hybrid mice [4]; F1 females, CES 5 %): 623 µg/kg bw/d | Emax (C57BL/6JxFVB hybrid mice [4]; read-out: Serum cholesterol: max effect size): -20% | Emax (C57BL/6JxFVB hybrid mice [4]; read-out: Serum triglycerides: max effect size): -27% | Tolerable daily intake (TDI) [5]: 1.5 µg/kg bw/d | Level in adult human serum samples ([6]; detected globally, ref Calafat et al. [2007]): 3.6 to 4.3 ng/mL | Level in serum of pregnant mothers ([6]; ref Grandjean et al. [2012]): 2.6 to 4.0 ng/mL | Level in cord plasma ([6]; ref de Cock et al. [2014]): 0.3 to 2.7 ng/mL | BMDL10 for liver effects in rodents (rodents): 300 µg/kg bw/d
